The text below walks through data of patent US20250376458A1, “COMPOUNDS AND METHODS FOR YAP/TEAD MODULATION AND INDICATIONS THEREFOR” (OPNA BIO SA, priority 2023, published 2025).

One assay concerns TEAD-dependent transcription. The assay can be described thus: TEAD-dependent transcription cell-based luciferase reporter assay (MSTO-211H+12XGTIIC). More on the design: species or system human. The note with it: Homo sapiens, MSTO-211H, 24 h, MSTO-211H+12XGTIIC cell line, 24 hours compound incubation, luminescence normalized to cell viability fluorescence signal; read-out: MSTO-211H GMean IC50 (uM) Cell Assay Reporter Cell Variant: TEAD. From the text:
Determine Inhibitor Activity Against TEAD-Dependent Transcription in a Cell-Based Reporter Assay
The human mesothelioma cell line MSTO-211H was stably transfected with a pGL4.21 plasmid containing a synthetic promoter with 12 copies of the GTIIC TEAD response element that drives the expression of a luciferase reporter gene i using Lipofectamine transfection reagent (Thermo Fisher). Transfected cells were selected using puromycin and single cell clones expressing this construct (referred to as MSTO-211H+12XGTIIC) were generated by limiting dilution. MSTO-211H cells was characterized by genetic alterations in key components of the Hippo pathway^2, resulting in up-regulation of YAP/TEAD-mediated transcription. […] To evaluate TEAD inhibitors, the MSTO-211H+12XGTIIC cell line was seeded in a 96-well plate in 50 μL of culture media at 1×10^4 cells per well and incubated at 37° C. overnight. Serial dilutions of compounds (in total volume of 50 μL of culture media) were added to the cells and incubated at 37° C. for 24 hours. Each plate included cells treated with DMSO as high controls and cells treated with 20 μM of the reference compound K-975 (a known TEAD inhibitor)^3 as low controls. Cell viability was assayed by the addition of 25 μL of CellTiter-Fluor reagent (Promega) followed by a 30-minute incubation at 37° C. and quantification of the fluorescence signal (Ex400/Em505). Subsequently, luciferase expression was assayed by the addition of 25 μL of ONE-Glo reagent (Promega) followed by a 10-minute incubation at room temperature and quantification of the luminescence signal. The luminescence signal was normalized to the fluorescence signal to correct for any loss in cell viability over the 24-hour compound incubation period. The percentage of inhibition of normalized luminescence signal, indicative of compound-mediated inhibition of TEAD-dependent transcription, at individual compound concentrations relative to high and low controls was calculated. The data were analyzed by using nonlinear regression to generate IC50 values for individual compounds.
Background: In a reporter assay the amount or activity of a reporter protein is the signal.
Turning to `CC(C)S(=O)(=O)c1nc(C(=O)N2CCc3c(cccc3Oc3ccc(C(F)(F)F)cc3)C2)c[nH]1` [O-0021, (2-(isopropylsulfonyl)-1H-imidazol-4-yl)(5-(4-(trifluoromethyl)phenoxy)-3,4-dihydroisoquinolin-2(1H)-yl)methanone], the IC50 is 0.001 to 10 µM. `O=C(c1c[nH]c(S(=O)(=O)C2CCC2)n1)N1CCc2c(cccc2Oc2ccc(C(F)(F)F)cc2)C1` [O-0125, (2-(cyclobutylsulfonyl)-1H-imidazol-4-yl)(5-(4-(trifluoromethyl)phenoxy)-3,4-dihydroisoquinolin-2(1H)-yl)methanone]: the IC50 is 0.001 to 10 µM. For the compound `CCCS(=O)(=O)c1nc(C(=O)N2CCc3c(cccc3Nc3ccc(C(F)(F)F)cc3)C2)c[nH]1` [O-0020, (2-(propylsulfonyl)-1H-imidazol-4-yl)(5-((4-(trifluoromethyl)phenyl)amino)-3,4-dihydroisoquinolin-2(1H)-yl)methanone], the half-inhibitory concentration (IC50) lay in the range of 0.001 to 10 µM. For the compound `CS(=O)(=O)c1nc(C(=O)N2CCc3cc(Oc4ccc(C(F)(F)F)cc4)ccc3C2)c[nH]1` [O-0073, (2-(methylsulfonyl)-1H-imidazol-4-yl)(6-(4-(trifluoromethyl)phenoxy)-3,4-dihydroisoquinolin-2(1H)-yl)methanone], the IC50 lay within 10 to 100 µM. Same read-out and setting: as for `CS(=O)(=O)c1nc(C(=O)N2CCc3c(cccc3OC3CCC(F)(F)CC3)C2)c[nH]1` [O-0112, (5-((4,4-difluorocyclohexyl)oxy)-3,4-dihydroisoquinolin-2(1H)-yl)(2-(methylsulfonyl)-1H-imidazol-4-yl)methanone], the figure is 0.001 to 10 µM; as for `O=C(c1c[nH]c(S(=O)(=O)C2CCC2)n1)N1CCc2c(cccc2Nc2ccc(C(F)(F)F)cc2)C1` [O-0126, (2-(cyclobutylsulfonyl)-1H-imidazol-4-yl)(5-((4-(trifluoromethyl)phenyl)amino)-3,4-dihydroisoquinolin-2(1H)-yl)methanone], 0.001 to 10 µM. Take `CCS(=O)(=O)c1nc(C(=O)N2CCc3c(cccc3Oc3ccc(C(F)(F)F)cc3)C2)c[nH]1` [O-0011, (2-(ethylsulfonyl)-1H-imidazol-4-yl)(5-(4-(trifluoromethyl)phenoxy)-3,4-dihydroisoquinolin-2(1H)-yl)methanone]: the half-inhibitory concentration (IC50) was in the range of 10 to 100 µM.

For `CCCS(=O)(=O)c1nc(C(=O)N2CCc3c(cccc3Oc3ccc(C(F)(F)F)cc3)C2)c[nH]1` [O-0019, (2-(propylsulfonyl)-1H-imidazol-4-yl)(5-(4-(trifluoromethyl)phenoxy)-3,4-dihydroisoquinolin-2(1H)-yl)methanone], the half-maximal inhibitory concentration (IC50) was 0.001 to 10 µM. On to `CC(C)S(=O)(=O)c1nc(C(=O)N2CCc3c(cccc3Nc3ccc(C(F)(F)F)c(F)c3)C2)c[nH]1` [O-0027, (5-((3-fluoro-4-(trifluoromethyl)phenyl)amino)-3,4-dihydroisoquinolin-2(1H)-yl)(2-(isopropylsulfonyl)-1H-imidazol-4-yl)methanone], for which the IC50 lay within 0.001 to 10 µM. As for `CNS(=O)(=O)c1nc(C(=O)N2CCc3cc(Oc4ccc(C(F)(F)F)cc4)ccc3C2)c[nH]1` [O-0111, N-methyl-4-(6-(4-(trifluoromethyl)phenoxy)-1,2,3,4-tetrahydroisoquinoline-2-carbonyl)-1H-imidazole-2-sulfonamide], the IC50 fell in the range of 0.001 to 10 µM. On the same count and under the same terms, as for `CS(=O)(=O)c1nc(C(=O)N2CCc3c(cccc3Nc3ccc(C(F)(F)F)cn3)C2)c[nH]1` [O-0003, (2-(methylsulfonyl)-1H-imidazol-4-yl)(5-((5-(trifluoromethyl)pyridin-2-yl)amino)-3,4-dihydroisoquinolin-2(1H)-yl)methanone], the figure is 0.001 to 10 µM.

As to `CS(=O)(=O)c1ncc(C(=O)N2CCc3ccc(Oc4ccc(C(F)(F)F)c(F)c4)cc3C2)[nH]1` [O-0123, (7-(3-fluoro-4-(trifluoromethyl)phenoxy)-3,4-dihydroisoquinolin-2(1H)-yl)(2-(methylsulfonyl)-1H-imidazol-5-yl)methanone], the IC50 lay in the range of 10 to 100 µM. For `CS(=O)(=O)c1nc(C(=O)N2CCc3ccc(Nc4ccc(C(F)(F)F)cc4F)cc3C2)c[nH]1` [O-0017, (7-((2-fluoro-4-(trifluoromethyl)phenyl)amino)-3,4-dihydroisoquinolin-2(1H)-yl)(2-(methylsulfonyl)-1H-imidazol-4-yl)methanone], the IC50 is 10 to 100 µM. Regarding `CS(=O)(=O)c1nc(C(=O)N2CCc3ccc(Nc4ccc(C(F)(F)F)nc4)cc3C2)c[nH]1` [O-0016, (2-(methylsulfonyl)-1H-imidazol-4-yl)(7-((6-(trifluoromethyl)pyridin-3-yl)amino)-3,4-dihydroisoquinolin-2(1H)-yl)methanone], the IC50 was 10 to 100 µM.

As to `CS(=O)(=O)c1nc(C(=O)N2CCc3c(ncnc3Oc3ccc(C(F)(F)F)cc3F)C2)c[nH]1` [O-0120, (4-(2-fluoro-4-(trifluoromethyl)phenoxy)-5,8-dihydropyrido[3,4-d]pyrimidin-7(6H)-yl)(2-(methylsulfonyl)-1H-imidazol-4-yl)methanone], the IC50 was 0.001 to 10 µM. In the case of `CS(=O)(=O)c1nc(C(=O)N2CCc3c(cccc3Nc3ccc(C(F)(F)F)c(F)c3)C2)c[nH]1` [O-0004, (5-((3-fluoro-4-(trifluoromethyl)phenyl)amino)-3,4-dihydroisoquinolin-2(1H)-yl)(2-(methylsulfonyl)-1H-imidazol-4-yl)methanone], the IC50 was in the range of 0.001 to 10 µM. Same read-out and setting: then `CCS(=O)(=O)c1nc(C(=O)N2CCc3c(ncnc3Oc3ccc(C(F)(F)F)c(F)c3)C2)c[nH]1` [O-0113, (2-(ethylsulfonyl)-1H-imidazol-4-yl)(4-(3-fluoro-4-(trifluoromethyl)phenoxy)-5,8-dihydropyrido[3,4-d]pyrimidin-7(6H)-yl)methanone], with 0.001 to 10 µM; and `Cn1c(C(=O)N2CCc3c(cccc3Nc3ccc(C(F)(F)F)cn3)C2)cnc1S(C)(=O)=O` [O-0006, (1-methyl-2-(methylsulfonyl)-1H-imidazol-5-yl)(5-((5-(trifluoromethyl)pyridin-2-yl)amino)-3,4-dihydroisoquinolin-2(1H)-yl)methanone], with 0.001 to 10 µM. With `CS(=O)(=O)c1nc(C(=O)N2CCc3cc(Oc4ccc(C(F)(F)F)cc4F)ccc3C2)c[nH]1` [O-0075, (6-(2-fluoro-4-(trifluoromethyl)phenoxy)-3,4-dihydroisoquinolin-2(1H)-yl)(2-(methylsulfonyl)-1H-imidazol-4-yl)methanone], the IC50 is 0.001 to 10 µM. On the same count and under the same terms, then `Cn1c(C(=O)N2CCc3c(cccc3Nc3ccc(C(F)(F)F)cc3)C2)cnc1S(C)(=O)=O` [O-0008, (1-methyl-2-(methylsulfonyl)-1H-imidazol-5-yl)(5-((4-(trifluoromethyl)phenyl)amino)-3,4-dihydroisoquinolin-2(1H)-yl)methanone], with 0.001 to 10 µM.

Still in this assay, the particulars now being: MSTO-211H+12XGTIIC cell line, 24 hours compound incubation, luminescence normalized to cell viability fluorescence signal; read-out: MSTO-211H GMean IC50 (uM) Cell Assay Reporter Cell Variant: TEAD.
As for `CS(=O)(=O)c1nc(C(=O)N2CCc3ccc(Nc4ccc(C(F)(F)F)c(F)c4)cc3C2)c[nH]1` [O-0018, (7-((3-fluoro-4-(trifluoromethyl)phenyl)amino)-3,4-dihydroisoquinolin-2(1H)-yl)(2-(methylsulfonyl)-1H-imidazol-4-yl)methanone], the IC50 lay within 10 to 100 µM. Still for that read-out and setting: as for `CCS(=O)(=O)c1nc(C(=O)N2CCc3c(ncnc3Oc3ccc(C(F)(F)F)cc3F)C2)c[nH]1` [O-0116, (2-(ethylsulfonyl)-1H-imidazol-4-yl)(4-(2-fluoro-4-(trifluoromethyl)phenoxy)-5,8-dihydropyrido[3,4-d]pyrimidin-7(6H)-yl)methanone], the figure is 0.001 to 10 µM. `CS(=O)(=O)c1nc(C(=O)N2CCc3c(ncnc3Oc3ccc(C(F)(F)F)c(F)c3)C2)c[nH]1` [O-0128, (4-(3-fluoro-4-(trifluoromethyl)phenoxy)-5,8-dihydropyrido[3,4-d]pyrimidin-7(6H)-yl)(2-(methylsulfonyl)-1H-imidazol-4-yl)methanone]: the IC50 was in the range of 10 to 100 µM. As to `CCS(=O)(=O)c1nc(C(=O)N2CCc3c(ncnc3Oc3ccc(C(F)(F)F)cc3F)C2)c[nH]1` [O-0129, (2-(ethylsulfonyl)-1H-imidazol-4-yl)(4-(2-fluoro-4-(trifluoromethyl)phenoxy)-5,8-dihydropyrido[3,4-d]pyrimidin-7(6H)-yl)methanone], the half-maximal inhibitory concentration (IC50) was in the range of 10 to 100 µM. On the same count and under the same terms, as for `CS(=O)(=O)c1nc(C(=O)N2CCc3c(ncnc3Oc3ccc(C(F)(F)F)c(F)c3)C2)c[nH]1` [O-0115, (4-(3-fluoro-4-(trifluoromethyl)phenoxy)-5,8-dihydropyrido[3,4-d]pyrimidin-7(6H)-yl)(2-(methylsulfonyl)-1H-imidazol-4-yl)methanone], the figure is 0.001 to 10 µM; as for `CS(=O)(=O)c1nc(C(=O)N2CCc3c(ncnc3Oc3ccc(C(F)(F)F)cc3)C2)c[nH]1` [O-0119, (2-(methylsulfonyl)-1H-imidazol-4-yl)(4-(4-(trifluoromethyl)phenoxy)-5,8-dihydropyrido[3,4-d]pyrimidin-7(6H)-yl)methanone], 0.001 to 10 µM.

In general, IC50 refers to the point on the concentration scale where inhibition reaches its midpoint.
